Laboratory results reported in ChEMBL document CHEMBL5252576, “Stictamycin, an Aromatic Polyketide Antibiotic Isolated from a New Zealand Lichen-Sourced Streptomyces Species” (2023).
Values after ≈ are worked out from the molar mass of the structure shown.

How the values were obtained:
Type in all cases: functional
Conditions in all cases: time 16-20 hrs
[1] = test system: Staphylococcus aureus; assay: Antibacterial activity against Staphylococcus aureus assessed as inhibition of bacterial growth incubated for 16 to 20 hrs by Mueller-Hinton broth based two-fold serial dilution method
[2] = test system: Bacillus subtilis; assay: Antibacterial activity against Bacillus subtilis E168 assessed as inhibition of bacterial growth incubated for 16 to 20 hrs by Mueller-Hinton broth based two-fold serial dilution method
[3] = test system: Escherichia coli; assay: Antibacterial activity against TolC-deficient Escherichia coli assessed as inhibition of bacterial growth incubated for 16 to 20 hrs by Mueller-Hinton broth based two-fold serial dilution method

Row | Compound | MIC [1] [µg/mL] | MIC [2] [µg/mL] | MIC [3] [µg/mL]
1 | NC[C@H]1O[C@H](O[C@H]2[C@H](O)[C@@H](O[C@H]3O[C@H](CO)[C@@H](O)[C@H](N)[C@H]3O)[C@H](N)C[C@@H]2N)[C@H](O)[C@@H](O)[C@@H]1O [KANAMYCIN] | 1 (≈ 2.06 µM) | 2 (≈ 4.13 µM) | 2 (≈ 4.13 µM)
2 | CC[C@]1(O)CC(=O)c2c(cc3cccc(O)c3c2O)[C@H]1C(C)=O | 2 (≈ 6.36 µM) | 32 (≈ 102 µM) | 32 (≈ 102 µM)
